# Data taken from patent US20070154444A1, “Extracts from black yeast for whitening skin” (priority 2005, published 2007).
# System: UV-B induced tan of the skin
# Assay: Whitening action: fading of UV-B induced tan on the backs of volunteer panelists, Minolta Chromameter reflectance
# Type: in vivo, human
# Conditions: FIG. 5; 1% extract or 2% kojic acid in Example 4 composition; 2 mg/cm^2 once a day; nine panelists
# Procedure: A comparative study is done to determine the whitening efficacy of an Exophiala mansonii—derived enzyme extract in comparison to the efficacy of a known tyrosinase inhibitor, kojic acid. More specifically, the study was designed to study the lightening effect of these materials (reduction in tanning) using the fading of UV-B induced tan as a marker. Two samples are prepared. The first sample contains the composition described in Example 4. The second sample has the same composition as that described in Example 4 except that 2% kojic acid is substituted for the 1 % Exophiala mansonii enzyme extract. Nine volunteers participate in the study. […] Tanning is observed for six days after irradiation at which point color measurements are made using a Minolta Chromameter which measures the difference in reflectance of the skin, L. The change in the value of the difference in reflectance, ΔL*, is measured against a baseline skin color value of untreated irradiated skin measured on day 6. […] Chromameter readings are obtained on day 6, 8, 11, 13 and 15. The observed reflectance values for all the time points are recorded, and the area under the curve for each test site was calculated. The Whitening Factor is calculated as the area under the curve of the treated site subtracted from the untreated site, and is shown in FIG. 5.
compound,measurement,value
O=c1cc(CO)occ1O [kojic acid],Whitening Factor (area under the curve of the treated site subtracted from the untreated site),1.8
